The text below walks through data of patent publication US20080200403A1, “9A-Carbamoyl and Thiocarbamoyl Azalides with Anti-Inflammatory Activity” (GLAXOSMITHKLINE, priority 2005, published 2008).

One series relates to TNF-α. Description: Inhibition of TNF-α production by stimulated human peripheral blood leukocytes in vitro. The following applies: Homo sapiens, Leukocyte, PBL, read-out: Percentage of inhibition of TNF-α production; for inhibition at 10 µM: compound 10 μM; for inhibition at 50 µM: compound 50 μM. The series is classed as cell-based. The procedure, abridged: (§1)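 Dextran-isolated human PBL (3-5×10^6 per well) in RPMI with 10% FCS were preincubated 2 h at 37 °C with compounds at 50 μM or 10 μM final, then stimulated overnight with 2 μg/mL LPS, 1 μg/mL PMA or 120 μg/mL zymosan. Supernatant cytokines by sandwich ELISA; % inhibition versus stimulated untreated control.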

The subject of a further series is IL-1α. Description: Inhibition of IL-1 production by stimulated human peripheral blood leukocytes in vitro. The series is classed as cell-based. The following applies: Homo sapiens, Leukocyte, PBL, read-out: Percentage of inhibition of IL-1α production; for inhibition at 10 µM: compound 10 μM; for inhibition at 50 µM: compound 50 μM.
A further series relates to A549. The series can be described thus: MTT cytotoxicity assay on A549 cell line. The series is classed as cell-based. The following applies: human, 24 h. How it is done: (§2) To determine whether the anti-inflammatory activity of the test compounds was due to observed inhibition of cytokine production and inhibition of proliferation in vitro, and was not a consequence of cellular cytotoxicity, measurement of succinate dehydrogenase activity in living cells was performed. Cells were cultured for 24 h in RPMI medium as described above at 37° C. in the presence of the test compounds at concentrations of 50 μM and 12.5 μM. MTT [3-(4,5-dimethylthiazole-2-yl)-2,5-diphenyl tetrazolium bromide] (Promega, USA), a detection reagent, was then added and the cultures were incubated for 0.5-2 h. The amount of MTT-Formazan produced was determined using a spectrophotometer at 490 nm (Mosmann, J. Imnunol. Methods, 1983, 65: 55-63). Percentage of viable cells was calculated using the following formula:
(§3) % viable cells=([…]OD490 treated cells/OD490 nontreated cells)×100
On the technique in general: Tetrazolium assays rely on reduction of a dye to a coloured formazan, in cell work by metabolically active cells.

In the next series the test system is IL-6. The series can be described thus: Inhibition of IL-6 production by stimulated human peripheral blood leukocytes in vitro. The following applies: Homo sapiens, Leukocyte, PBL, read-out: Percentage of inhibition of IL-6 production; for inhibition at 10 µM: compound 10 μM; for inhibition at 50 µM: compound 50 μM. Format: cell-based. The procedure, abridged: as §1

The next series relates to IL-8. The series can be described thus: Inhibition of IL-8 production by stimulated human peripheral blood leukocytes in vitro. Format: cell-based. The following applies: Homo sapiens, Leukocyte, PBL, read-out: Percentage of inhibition of IL-8 production; for inhibition at 10 µM: compound 10 μM; for inhibition at 50 µM: compound 50 μM. The procedure, abridged: as §1
A further series concerns Hep G2. Description: MTT cytotoxicity assay on Hep G2 cell line. The series is classed as cell-based. The following applies: human, 24 h. How it is done: as §2, §3
A further series has as its system human granulocytes. The series can be described thus: Oxidative burst inhibition assay on granulocytes (luminol). The series is classed as cell-based. The note with it: Homo sapiens; for inhibition at 12.5 µM: compound 12.5 μM; for inhibition at 50 µM: compound 50 μM. How it is done: (§4) Granulocytes were obtained from heparinized whole blood using density gradient centrifugation. Erythrocytes were sedimented on 3% dextran T-500 (Amersham Pharmacia Biotech AB, Uppsala, Sweden). Leukocytes were centrifuged on Ficoll (Amersham Pharmacia Biotech AB, Uppsala, Sweden) for 35 min at 600 g at 20° C. The pellet of granulocytes was cleared from remaining erythrocytes by a brief hypotonic lysis.
The effect of compounds on oxidative burst was investigated in vitro with oxidative burst assay in human granulocytes, isolated as described above. Assay was done in 96 well plate. Blood was obtained from healthy volunteers (Transfusion Center, Croatia) and human granulocytes were isolated by dextran sedimentation and ficoll extraction method, as described above. In each well 50000 isolated granulocytes were suspended in 100 μL of DMEM. Final concentrations of the tested compounds were 50 and 12.5 μM. Than, 50 μL of luminol (c=0.25 mg/mL) was added. Luminol as a detector of oxidative burst react with superoxide and light is produced as one of the reaction products. Subsequently, 50 μL of stimuli, phorbol-12-myristate acetate (PMA) (c=33 ng/mL) or Zymosan (c=120 μg/mL), were added.

For the next series, the system named is granulocytes. Description: Inhibition of degranulation of granulocytes (elastase release). Format: cell-based, human. The following applies: Homo sapiens, compound 50 μM, read-out: Percentage of inhibition of degranulation of granulocytes. How it is done:
as §4
1×10^6 granulocytes, isolated as described above, were resuspended in RPMI-1640 medium (Institute of Immunology, Croatia), and were incubated with 10 or 50 μM of test compound together with cytochalasine B (5 μg/mL) for 2 h at 37° C. Degranulation then was induced by the addition of 0.1 μM fMLP (Sigma, USA) or 0.5 μM A23187 (Calbiochem, USA). The activity of free neutrophil elastase was determined with a chromogenic substrate specific for human neutrophil elastase, such as n-methoxysuccinyl-1-alanyl-1-alanyl-1-prolyl-lvalyl-p-niytoanlide (Sigma Chemical Company, St Louis, Mo., USA) Elastase activity, as a marker of primary granules, was assessed in supernatant using a spectrophotometer at an absorbance of 405 nm. Results are expressed as the percent of inhibition of degranulation in unstimulated cells, and in stimulated cells treated with fMLP or A23187.

The mark [1] stands for this setting: PMA stimulated granulocytes, read-out: % inhibition of Oxidative burst PMA.
[2] abbreviates: Zymosan stimulated granulocytes, read-out: % inhibition of Oxidative burst Zymosan.

As a reminder, the inhibition is the percentage by which the read-out fell short of the control.

Like-named read-outs stand apart in the source and are kept apart here.

Consider `CC[C@H]1OC(=O)[C@H](C)[C@@H](O[C@H]2C[C@@](C)(OC)[C@@H](O)[C@H](C)O2)[C@H](C)[C@@H](O[C@@H]2O[C@H](C)C[C@H](N(C)C)[C@H]2O)[C@](C)(O)C[C@@H](C)CN(C(=O)Nc2ccc(C(F)(F)F)cc2)[C@H](C)[C@@H](O)[C@]1(C)O` [Compound 9], for which the inhibition at 10 µM was 23% in the series with TNF-α (LPS stimulated); 39% in the series with TNF-α (zymosan stimulated); 45% with IL-1α (LPS stimulated); 65% in the series on IL-1α (zymosan stimulated); 0% with IL-6 (LPS stimulated); 58% with IL-6 (zymosan stimulated). Further, the inhibition at 10 µM in the series on IL-8 (LPS stimulated) and in the series with IL-8 (zymosan stimulated) was 0% in each case. Also, the inhibition at 50 µM in the series on TNF-α (LPS stimulated) is 100%; in the series with TNF-α (zymosan stimulated) it was 100%; with IL-1α (LPS stimulated), 43%; in the series on IL-1α (zymosan stimulated) it was 22%; in the series with IL-6 (LPS stimulated) it was 100%; with IL-6 (zymosan stimulated) it was 100%. For the same compound, the inhibition at 50 µM with IL-8 (LPS stimulated) and in the series with IL-8 (zymosan stimulated) was 100% each time. In addition, the “Percentage of viable cells after treatment” value with A549 (12.5 μM) is listed as 100%; in the series on A549 (50 μM) it was 100%; with Hep G2 (12.5 μM), 92%; with Hep G2 (50 μM), 21%.

Consider `CC[C@H]1OC(=O)[C@H](C)[C@@H](O[C@H]2C[C@@](C)(OC)[C@@H](O)[C@H](C)O2)[C@H](C)[C@@H](O[C@@H]2O[C@H](C)C[C@H](N(C)C)[C@H]2O)[C@](C)(O)C[C@@H](C)CN(C(=O)NC(C)c2cccc3ccccc23)[C@H](C)[C@@H](O)[C@]1(C)O` (stereo partly shown) [Compound 12], for which the inhibition at 10 µM with TNF-α (LPS stimulated) is 28%; in the series with TNF-α (zymosan stimulated) it was 70%; in the series with IL-1α (LPS stimulated), 52%; in the series on IL-1α (zymosan stimulated), 80%; in the series on IL-6 (LPS stimulated), 6%; in the series with IL-6 (zymosan stimulated) it was 88%. Besides, the inhibition at 10 µM came to 15% in the series on IL-8 (LPS stimulated) and 40% with IL-8 (zymosan stimulated). The inhibition at 50 µM is 100% with TNF-α (LPS stimulated); 100% in the series with TNF-α (zymosan stimulated); 82% in the series on IL-1α (LPS stimulated); 100% in the series with IL-1α (zymosan stimulated); 100% in the series with IL-6 (LPS stimulated); 100% in the series with IL-6 (zymosan stimulated). Besides, the inhibition at 50 µM in the series on IL-8 (LPS stimulated) and with IL-8 (zymosan stimulated) was 100% in each case. For the same compound, the “Percentage of viable cells after treatment” value in the series on A549 (12.5 μM) amounted to 94%; with A549 (50 μM), 72%; in the series on Hep G2 (12.5 μM) it was 93%; with Hep G2 (50 μM) it was 8%.

As to `CC[C@H]1OC(=O)[C@H](C)[C@@H](O[C@H]2C[C@@](C)(OC)[C@@H](O)[C@H](C)O2)[C@H](C)[C@@H](O[C@@H]2O[C@H](C)C[C@H](N(C)C)[C@H]2O)[C@](C)(O)C[C@@H](C)C(=O)[C@H](C)[C@@H](O)[C@]1(C)O` [Erythromycin, erythromycin], the inhibition at 12.5 µM in the series on human granulocytes (setting [1]) came out at 0%; in the series on human granulocytes (setting [2]) it was 6%. The inhibition at 50 µM with human granulocytes (setting [1]) worked out at 0%; in the series with human granulocytes (setting [2]) it was 41%; with granulocytes (A23187 0.5 μM stimulated) it was 0%; in the series with granulocytes (fMLP 0.1 μM stimulated), 23%.
